Read-outs that look alike come from different tables or passages of the source.

This data set has as its system S. aureus strain ATCC 33591 (MRSA-strain). The procedure:
Organ samples were thawed and homogenized using a Polytron tissue homogenizer after addition of 3 mL isotonic sodium chloride solution. First, a calibration curve was prepared by spiking different concentrations of CorA into the respective matrix from CD-1 mice. Caffeine was used as an internal standard. In addition, quality control samples (QCs) were prepared for CorA for every matrix. For PD samples, calibration curve and QCs were prepared for levofloxacin using the same protocol. The following extraction procedure was used: 50 µL of a sample (calibration sample, QCs, PK or PD sample) was extracted with 20 µL of acetic acid in water (10/90 (v/v)) and 30 µL acetonitrile for 5 min at 800 rpm on an Eppendorf MixMate® vortex mixer. Then, samples were spun down for 20 min at 4 °C and 4000 rpm and supernatants were transferred to new Greiner 96-well V-bottom plates. Samples were analyzed using an Agilent 1290 Infinity II HPLC system (Waldbronn, Germany) coupled to an AB Sciex QTrap6500plus mass spectrometer (Darmstadt, Germany). LC conditions were as follows: column: Agilent Zorbax Exlipse Plus C18, 50 × 2.1 mm, 1.8 µm; temperature: 30 °C; injection volume: 5 µL per sample; flow rate: 800 µL/min. Samples were run under buffered conditions: A: 95% water + 5% acetonitrile + 5 mM ammonium acetate + 40 µL/L acetic acid; B: 95% acetonitrile + 5% water + 5 mM ammonium acetate + 40 µL/L acetic acid. The gradient was as follows: 99% A at 0 min, 99% A until 0.1 min, 99–0% A from 0.1 min to 4.0 min, 0% A until 4.5 min. Mass transitions for controls and compounds are depicted in Table S1. Peaks of PK samples were quantified using the calibration curve. The accuracy of the calibration curve was determined using QCs independently prepared on different days. PK parameters were determined using a non-compartmental analysis with PKSolver.
Inocula were prepared as described previously with the modification that isotonic sodium chloride solution was used instead of PBS [25]. For the neutropenic thigh and the neutropenic lung infection model the S. aureus strain ATCC 33591 (MRSA-strain) was used. For the neutropenic lung infection model an inoculum of 2 × 10^9 cfu/mL was used. For the neutropenic thigh infection model an inoculum of 7 × 10^5 cfu/mL was used.
The model was conducted as described previously. In brief, the following groups were used: (1) inoculum control group with terminal endpoint at 2 h post infection to determine baseline inoculum in vivo; (2) vehicle-treated group receiving 20 mg/kg SC tramadol and vehicle (PEG400/PBS (80:20 (v/v)); (3) levofloxacin group 5 mg/kg IP three times a day (TID) (t = 2, 6 and 10 h post infection); (4) CorA 60 mg/kg IP TID (t = 2, 6 and 10 h post infection) and (5) CorA 100 mg/kg IP BID (t = 2 and 6 h post infection). The endpoint for groups no. 2–5 was 24 h post infection. A solution of […].

In the case of `C/C=C/C/C=C(\C)C(O)CC/C(C)=C/C=C(\C)C(=O)c1c(O)cc([C@H](C)CC/C=C/NC(=O)OC)oc1=O` (stereo partly shown) [CorA, Corallopyronin A], the “terminal thigh concentrations lower than in the group at 100 mg/kg IP BID” value (60 mg/kg IP BID (so in the source) vs 100 mg/kg IP BID, thigh) is on record as “more than 10 fold”. The “terminal level in lung tissue” value is recorded as “not detected” (60 mg/kg IP TID) and “detected at low levels” (100 mg/kg IP BID). In addition, where the note is “60 mg/kg IP TID, 24 h post infection, secondary seeding, vs vehicle”, the “bacterial burden in lung tissue” value was “did not show any effect”. Moreover, under “60 mg/kg IP TID, 24 h post infection, vs vehicle”, the “bacterial burden in thigh tissue” value is on record as “did not show any effect”. For the setting “100 mg/kg IP BID vs 60 mg/kg IP TID, liver”, the “terminal liver levels lower than at 60 mg/kg IP TID” value is given as “more than 5 fold”. Also, for the setting “100 mg/kg IP BID, 24 h post infection”, the “bacterial burden in thigh” value is listed as “significant reduction”.

The values above are taken from article PMC9860980, “Pharmacokinetics and Pharmacodynamics (PK/PD) of Corallopyronin A against Methicillin-Resistant Staphylococcus aureus” (Pharmaceutics, 2022).
